# Test results published in ChEMBL document CHEMBL3885861, “Open TG-GATES”.
# Species on record: Rattus norvegicus
# Test: Open TG-GATES - Regimen: Daily Repeat
# Format: toxicity, organism-based, Sprague-Dawley
# Parameters: regimen Daily Repeat, gender Male, age 6 weeks
# Conditions: in vivo, po, 200 mg/kg, route gavage, dose level High; for APTT / Bas / Eos / Fbg / Hb / Ht / Lym / MCH / MCHC / MCV / Mono / Neu / PT / Plat / RBC / Ret / WBC: tissue Blood; for KIDNEY_L / KIDNEY_R / KIDNEY_TOTAL: tissue Kidney; for LIVER: tissue Liver; for A/G / ALP / ALT / AST / BUN / CRE / Ca / Cl / DBIL / GLC / IP / K / LDH / Na / PL / RALB / TBIL / TC / TG / TP / gamma-GTP: tissue Plasma
structure (smiles),measurement,setting,value
CC(CN1c2ccccc2Sc2ccccc21)N(C)C (configuration not stated) [PROMETHAZINE],TERMINAL_BW,"72 h, time 3 day",194.8 g
same,APTT,"72 h, time 3 day",23.9 s
same,Bas,"72 h, time 3 day",0%
same,Eos,"72 h, time 3 day",0.8%
same,Fbg,"72 h, time 3 day",333.2 mg/dL
same,Hb,"72 h, time 3 day",15 g/dL
same,Ht,"72 h, time 3 day",44.4%
same,Lym,"72 h, time 3 day",74.6%
same,MCH,"72 h, time 3 day",20.7 pg
same,MCHC,"72 h, time 3 day",33.7%
same,MCV,"72 h, time 3 day",61.6 fL
same,Mono,"72 h, time 3 day",2.8%
same,Neu,"72 h, time 3 day",21%
same,PT,"72 h, time 3 day",16.6 s
same,Plat,"72 h, time 3 day",130.8 x10_4/uL
same,RBC,"72 h, time 3 day",722.2 x10_4/ul
same,Ret,"72 h, time 3 day",4.2%
same,WBC,"72 h, time 3 day",73 x10_2/uL
same,KIDNEY_L,"72 h, time 3 day",0.9 g
same,KIDNEY_R,"72 h, time 3 day",0.9 g
same,KIDNEY_TOTAL,"72 h, time 3 day",1.8 g
same,LIVER,"72 h, time 3 day",10 g
same,A/G,"72 h, time 3 day",1.3
same,ALP,"72 h, time 3 day",1369.6 IU/L
same,ALT,"72 h, time 3 day",46.8 IU/L
same,AST,"72 h, time 3 day",69.2 IU/L
same,BUN,"72 h, time 3 day",14.8 mg/dL
same,CRE,"72 h, time 3 day",0.2 mg/dL
same,Ca,"72 h, time 3 day",10.2 mg/dL
same,Cl,"72 h, time 3 day",107.2 meq/L
same,DBIL,"72 h, time 3 day",0.08 mg/dL
same,GLC,"72 h, time 3 day",174.6 mg/dL
same,IP,"72 h, time 3 day",8.3 mg/dL
same,K,"72 h, time 3 day",4.3 meq/L
same,LDH,"72 h, time 3 day",204.6 IU/L
same,Na,"72 h, time 3 day",142.4 meq/L
same,PL,"72 h, time 3 day",159.4 mg/dL
same,RALB,"72 h, time 3 day",3.2 g/dL
same,TBIL,"72 h, time 3 day",0.024 mg/dL
same,TC,"72 h, time 3 day",98.6 mg/dL
same,TG,"72 h, time 3 day",75.6 mg/dL
same,TP,"72 h, time 3 day",5.8 g/dL
same,gamma-GTP,"72 h, time 3 day",1.4 IU/L
same,TERMINAL_BW,"[…], time 7 day",231 g
same,TERMINAL_BW,"[…], time 14 day",258.5 g
same,TERMINAL_BW,"[…], time 28 day",339.7 g
same,APTT,"[…], time 7 day",23.3 s
same,Bas,"[…], time 7 day",0%
same,Eos,"[…], time 7 day",1%
same,Fbg,"[…], time 7 day",306.2 mg/dL
same,Hb,"[…], time 7 day",14.1 g/dL
same,Ht,"[…], time 7 day",42.2%
same,Lym,"[…], time 7 day",76.4%
same,MCH,"[…], time 7 day",19.7 pg
same,MCHC,"[…], time 7 day",33.4%
same,MCV,"[…], time 7 day",59.1 fL
same,Mono,"[…], time 7 day",3.2%
same,Neu,"[…], time 7 day",18.6%
same,PT,"[…], time 7 day",15.9 s
same,Plat,"[…], time 7 day",115.2 x10_4/uL
same,RBC,"[…], time 7 day",714.2 x10_4/ul
same,Ret,"[…], time 7 day",3.9%
same,WBC,"[…], time 7 day",129.8 x10_2/uL
same,APTT,"[…], time 14 day",22.6 s
same,Bas,"[…], time 14 day",0%
same,Eos,"[…], time 14 day",1%
same,Fbg,"[…], time 14 day",369.4 mg/dL
same,Hb,"[…], time 14 day",15 g/dL
same,Ht,"[…], time 14 day",43.8%
same,Lym,"[…], time 14 day",70.4%
same,MCH,"[…], time 14 day",19.7 pg
same,MCHC,"[…], time 14 day",34.2%
same,MCV,"[…], time 14 day",57.4 fL
same,Mono,"[…], time 14 day",3.2%
same,Neu,"[…], time 14 day",24.6%
same,PT,"[…], time 14 day",16.1 s
same,Plat,"[…], time 14 day",120.6 x10_4/uL
same,RBC,"[…], time 14 day",763.2 x10_4/ul
same,Ret,"[…], time 14 day",4%
same,WBC,"[…], time 14 day",105 x10_2/uL
same,APTT,"[…], time 28 day",23.6 s
same,Bas,"[…], time 28 day",0%
same,Eos,"[…], time 28 day",1%
same,Fbg,"[…], time 28 day",316.4 mg/dL
same,Hb,"[…], time 28 day",15.3 g/dL
same,Ht,"[…], time 28 day",43.5%
same,Lym,"[…], time 28 day",71.6%
same,MCH,"[…], time 28 day",19.3 pg
same,MCHC,"[…], time 28 day",35.1%
same,MCV,"[…], time 28 day",55.1 fL
same,Mono,"[…], time 28 day",3%
same,Neu,"[…], time 28 day",23.4%
same,PT,"[…], time 28 day",16.4 s
same,Plat,"[…], time 28 day",108 x10_4/uL
same,RBC,"[…], time 28 day",791.6 x10_4/ul
same,Ret,"[…], time 28 day",3.3%
same,WBC,"[…], time 28 day",135.4 x10_2/uL
same,KIDNEY_L,"[…], time 7 day",1 g
same,KIDNEY_R,"[…], time 7 day",1.1 g
same,KIDNEY_TOTAL,"[…], time 7 day",2.1 g
same,KIDNEY_L,"[…], time 14 day",1.1 g
same,KIDNEY_R,"[…], time 14 day",1.1 g
same,KIDNEY_TOTAL,"[…], time 14 day",2.2 g
same,KIDNEY_L,"[…], time 28 day",1.3 g
same,KIDNEY_R,"[…], time 28 day",1.3 g
same,KIDNEY_TOTAL,"[…], time 28 day",2.6 g
same,LIVER,"[…], time 7 day",14.7 g
same,LIVER,"[…], time 14 day",15.1 g
same,LIVER,"[…], time 28 day",21.1 g
same,A/G,"[…], time 7 day",1.1
same,ALP,"[…], time 7 day",1435.2 IU/L
same,ALT,"[…], time 7 day",56.4 IU/L
same,AST,"[…], time 7 day",75.4 IU/L
same,BUN,"[…], time 7 day",19.6 mg/dL
same,CRE,"[…], time 7 day",0.2 mg/dL
same,Ca,"[…], time 7 day",10.9 mg/dL
same,Cl,"[…], time 7 day",104.8 meq/L
same,DBIL,"[…], time 7 day",0.004 mg/dL
same,GLC,"[…], time 7 day",179.4 mg/dL
same,IP,"[…], time 7 day",7.8 mg/dL
same,K,"[…], time 7 day",4.5 meq/L
same,LDH,"[…], time 7 day",167.8 IU/L
same,Na,"[…], time 7 day",142 meq/L
same,PL,"[…], time 7 day",170.6 mg/dL
same,RALB,"[…], time 7 day",3 g/dL
same,TBIL,"[…], time 7 day",0.008 mg/dL
same,TC,"[…], time 7 day",84.8 mg/dL
same,TG,"[…], time 7 day",127 mg/dL
same,TP,"[…], time 7 day",5.7 g/dL
same,gamma-GTP,"[…], time 7 day",2.8 IU/L
same,A/G,"[…], time 14 day",1
same,ALP,"[…], time 14 day",1417 IU/L
same,ALT,"[…], time 14 day",53.6 IU/L
same,AST,"[…], time 14 day",73.8 IU/L
same,BUN,"[…], time 14 day",20.6 mg/dL
same,CRE,"[…], time 14 day",0.2 mg/dL
same,Ca,"[…], time 14 day",11 mg/dL
same,Cl,"[…], time 14 day",103.2 meq/L
same,DBIL,"[…], time 14 day",0.014 mg/dL
same,GLC,"[…], time 14 day",184.6 mg/dL
same,IP,"[…], time 14 day",8 mg/dL
same,K,"[…], time 14 day",4.2 meq/L
same,LDH,"[…], time 14 day",249 IU/L
same,Na,"[…], time 14 day",143.4 meq/L
same,PL,"[…], time 14 day",182.4 mg/dL
same,RALB,"[…], time 14 day",3.1 g/dL
same,TBIL,"[…], time 14 day",0.018 mg/dL
same,TC,"[…], time 14 day",99 mg/dL
same,TG,"[…], time 14 day",117.2 mg/dL
same,TP,"[…], time 14 day",6.1 g/dL
same,gamma-GTP,"[…], time 14 day",3.4 IU/L
same,A/G,"[…], time 28 day",1
same,ALP,"[…], time 28 day",1191.4 IU/L
same,ALT,"[…], time 28 day",54.6 IU/L
same,AST,"[…], time 28 day",66 IU/L
same,BUN,"[…], time 28 day",21.2 mg/dL
same,CRE,"[…], time 28 day",0.2 mg/dL
same,Ca,"[…], time 28 day",10.8 mg/dL
same,Cl,"[…], time 28 day",104.2 meq/L
same,DBIL,"[…], time 28 day",0.008 mg/dL
same,GLC,"[…], time 28 day",175.2 mg/dL
same,IP,"[…], time 28 day",6.8 mg/dL
same,K,"[…], time 28 day",4.1 meq/L
same,LDH,"[…], time 28 day",146 IU/L
same,Na,"[…], time 28 day",142.8 meq/L
same,PL,"[…], time 28 day",211.4 mg/dL
same,RALB,"[…], time 28 day",3.2 g/dL
same,TBIL,"[…], time 28 day",0.02 mg/dL
same,TC,"[…], time 28 day",116.8 mg/dL
same,TG,"[…], time 28 day",136.6 mg/dL
same,TP,"[…], time 28 day",6.3 g/dL
same,gamma-GTP,"[…], time 28 day",4.2 IU/L
